According to paper PMC10374545, “A small molecule inhibitor of PTP1B and PTPN2 enhances T cell anti-tumor immunity” (Nature Communications, 2023):

What was measured:
Format in all cases: biochemical
CDC14A = target: T1, CDC14A (Homo sapiens, UniProt Q9UNH5); experiment: PTP selectivity, DiFMUP assay; settings: DiFMUP at Km
T1 construct: CDC14A, residues 1-413; made in house; host or cells: E. coli BL21(DE3)
Protocol: (§1) E. coli BL21(DE3) (Novagen) was used as an expression host and the induction of protein expression was carried out in LB media with 1 mM IPTG at 18 °C overnight. Cell pellets were stored at −80 °C for subsequent protein purification.
(§2) Protein purification of PTPs for enzymatic assays was conducted at 4 °C. Frozen cell pellets were lysed by sonication in 40 ml cold lysis buffer (50 mM Tris-HCl, pH 8.0, 150 mM NaCl, 5 mM imidazole, and 1 mM PMSF) per litre cell pellet. Cell lysates were clarified by centrifugation using a Beckman JA-18 rotor for 15 min at 5308 x g. The supernatant was incubated with HisPur Ni-NTA resin (Thermo Scientific) for 2 h and then packed onto a column and washed with 50 resin volume of buffer A (50 mM Tris-HCl, pH 8.0, 500 mM NaCl, 5 mM imidazole). The His-tagged proteins were eluted with Buffer B (50 mM Tris-HCl, pH=8.0, 500 mM NaCl, 300 mM imidazole,). Pooled His-protein-containing fractions were concentrated, loaded onto a HiLoad 26/600 Superdex 75 column (GE Healthcare Biosciences) and eluted with storage buffer (50 mM Tris-HCl, pH 8.0, 150 mM NaCl, 1 mM DTT, 10% glycerol). […] The protein was aliquoted and stored at −80 °C.
(§3) The PTP kinetic assay was modified from previous reported protocols[73],[74]. PTP activity was assayed using 6,8-Difluoro-4-Methylumbelliferyl Phosphate (DiFMUP, Invitrogen, cat# D6567,) as a substrate in 3,3-Dimethylglutaric acid (DMG) buffer (50 mM DMG, pH 7.0, 1 mM EDTA, 18 mM NaCl, 0.01% Triton X-100) at 25 °C. To determine the IC50 values, the assays were performed in 96-well plates (Corning Costar 3915). […] The final reaction volume is 200 µl. The reaction was allowed to proceed for 10 min and then quenched by the addition of 40 µl of a 160 µM solution of bpV(Phen) (Sigma-Aldrich, cat# SML0889). The fluorescence signal was measured using a CLARIOstar Plus Microplate Spectrophotometer (BMG Labtech) using excitation and emission wavelengths of 340 nm and 450 nm, respectively. Data were fitted using Prism GraphPad 9.2.0.
(§4) To determine the mode of inhibition, the reactions were initiated by the addition of enzyme (final concentration for PTP1B and PTPN2 was 0.05 nM) to the reaction mixtures (0.2 ml) containing various concentrations of DiFMUP with different concentrations of the inhibitor. The reaction was allowed to proceed for 10 min and then quenched by the addition of 40 µl of a 160 µM solution of bpV(Phen) (Sigma-Aldrich, cat# SML0889). The fluorescence signal was measured using a CLARIOstar Plus Microplate Spectrophotometer (BMG Labtech) using excitation and emission wavelength of 340 nm and 450 nm, respectively. Data were fitted using Prism GraphPad 9.2.0. For selectivity studies, the inhibition assay for other PTPs were performed under the same conditions as used for PTP1B and PTPN2 except with different DiFMUP concentration corresponding to the Km of the PTP studied.

CDC14B = target: T2, CDC14B (Homo sapiens, UniProt O60729); experiment: PTP selectivity, DiFMUP assay; settings: DiFMUP at Km
T2 construct: CDC14B, residues 1-411; made in house; host or cells: E. coli BL21(DE3)
T2 sequence (O60729 1-411): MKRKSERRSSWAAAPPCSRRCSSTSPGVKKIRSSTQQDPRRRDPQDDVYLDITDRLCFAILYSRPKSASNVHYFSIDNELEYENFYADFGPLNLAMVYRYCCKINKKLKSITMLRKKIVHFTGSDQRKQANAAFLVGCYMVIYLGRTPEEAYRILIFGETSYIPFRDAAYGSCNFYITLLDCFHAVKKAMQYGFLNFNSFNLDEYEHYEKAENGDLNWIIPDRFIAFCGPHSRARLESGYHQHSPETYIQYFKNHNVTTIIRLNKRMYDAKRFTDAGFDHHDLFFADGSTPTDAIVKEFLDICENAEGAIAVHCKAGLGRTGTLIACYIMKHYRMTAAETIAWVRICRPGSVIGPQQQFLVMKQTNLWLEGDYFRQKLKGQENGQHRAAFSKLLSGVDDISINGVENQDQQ
Protocol: as §1, §2, §3, §4

LYP = target: T3, LYP (Homo sapiens, UniProt Q9Y2R2); experiment: PTP selectivity, DiFMUP assay; settings: DiFMUP at Km
T3 construct: LYP/PTPN22, residues 1-294; made in house; host or cells: E. coli BL21(DE3)
T3 sequence (Q9Y2R2 1-294): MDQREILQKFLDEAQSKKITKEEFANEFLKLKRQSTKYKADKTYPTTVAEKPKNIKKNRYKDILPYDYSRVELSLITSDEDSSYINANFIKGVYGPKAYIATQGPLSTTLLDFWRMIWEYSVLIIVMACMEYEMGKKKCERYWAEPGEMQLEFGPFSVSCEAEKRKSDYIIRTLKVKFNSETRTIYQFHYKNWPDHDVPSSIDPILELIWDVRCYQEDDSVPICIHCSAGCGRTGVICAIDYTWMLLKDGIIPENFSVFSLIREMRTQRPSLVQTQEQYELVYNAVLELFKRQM
Protocol: as §1, §2, §3, §4

Laforin = target: T4, Laforin (Homo sapiens, UniProt O95278); experiment: PTP selectivity, DiFMUP assay; settings: DiFMUP at Km
T4 construct: made in house; host or cells: E. coli BL21(DE3)
T4 sequence (O95278 whole entry): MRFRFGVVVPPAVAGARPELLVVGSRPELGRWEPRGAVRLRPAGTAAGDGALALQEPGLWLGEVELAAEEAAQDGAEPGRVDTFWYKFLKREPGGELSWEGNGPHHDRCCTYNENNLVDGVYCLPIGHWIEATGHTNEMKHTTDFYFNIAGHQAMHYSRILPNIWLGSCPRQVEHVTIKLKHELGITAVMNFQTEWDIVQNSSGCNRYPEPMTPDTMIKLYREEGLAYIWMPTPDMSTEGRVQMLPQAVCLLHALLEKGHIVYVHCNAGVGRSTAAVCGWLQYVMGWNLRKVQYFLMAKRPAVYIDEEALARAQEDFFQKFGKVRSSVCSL
Protocol: as §1, §2, §3, §4

PTPε = target: T5, PTPε (Homo sapiens, UniProt P23469); experiment: PTP selectivity, DiFMUP assay; settings: DiFMUP at Km
T5 construct: PTPε, residues 107-697; made in house; host or cells: E. coli BL21(DE3)
T5 sequence (P23469 107-697): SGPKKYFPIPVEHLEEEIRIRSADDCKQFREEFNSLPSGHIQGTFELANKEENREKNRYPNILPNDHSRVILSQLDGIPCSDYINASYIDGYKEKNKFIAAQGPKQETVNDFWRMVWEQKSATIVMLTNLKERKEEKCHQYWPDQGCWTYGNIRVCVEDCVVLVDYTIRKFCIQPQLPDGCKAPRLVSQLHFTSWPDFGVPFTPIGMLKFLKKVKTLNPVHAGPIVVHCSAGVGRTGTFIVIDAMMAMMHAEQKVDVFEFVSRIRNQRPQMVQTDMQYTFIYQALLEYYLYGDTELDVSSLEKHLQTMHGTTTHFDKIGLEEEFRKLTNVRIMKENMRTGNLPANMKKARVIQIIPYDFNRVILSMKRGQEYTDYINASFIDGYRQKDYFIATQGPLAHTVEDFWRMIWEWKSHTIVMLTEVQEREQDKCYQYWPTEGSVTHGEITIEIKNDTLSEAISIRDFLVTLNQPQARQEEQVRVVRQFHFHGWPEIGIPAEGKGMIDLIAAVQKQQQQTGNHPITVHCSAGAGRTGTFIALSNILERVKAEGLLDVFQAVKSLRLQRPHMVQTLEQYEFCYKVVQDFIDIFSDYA
Protocol: as §1, §2, §3, §4

STEP = target: T6, STEP (Homo sapiens, UniProt P54829); experiment: PTP selectivity, DiFMUP assay; settings: DiFMUP at Km
T6 construct: STEP, residues 258-539; made in house; host or cells: E. coli BL21(DE3)
T6 sequence (P54829 282-563): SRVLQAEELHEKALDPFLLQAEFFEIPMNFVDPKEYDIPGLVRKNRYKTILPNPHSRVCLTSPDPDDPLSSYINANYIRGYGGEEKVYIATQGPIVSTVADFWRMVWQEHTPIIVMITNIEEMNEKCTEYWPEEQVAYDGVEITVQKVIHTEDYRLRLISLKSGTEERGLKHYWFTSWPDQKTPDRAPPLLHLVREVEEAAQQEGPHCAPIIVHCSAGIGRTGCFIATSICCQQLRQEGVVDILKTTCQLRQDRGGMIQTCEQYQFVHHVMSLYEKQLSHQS
Protocol: as §1, §2, §3, §4

PTP1B = target: T7, PTP1B (Homo sapiens, UniProt P18031); experiment: Mode of inhibition and Ki, Lineweaver-Burk kinetic analysis with DiFMUP
T7 construct: PTP1B, residues 1-321; made in house; host or cells: E. coli BL21(DE3)
T7 sequence (P18031 1-321): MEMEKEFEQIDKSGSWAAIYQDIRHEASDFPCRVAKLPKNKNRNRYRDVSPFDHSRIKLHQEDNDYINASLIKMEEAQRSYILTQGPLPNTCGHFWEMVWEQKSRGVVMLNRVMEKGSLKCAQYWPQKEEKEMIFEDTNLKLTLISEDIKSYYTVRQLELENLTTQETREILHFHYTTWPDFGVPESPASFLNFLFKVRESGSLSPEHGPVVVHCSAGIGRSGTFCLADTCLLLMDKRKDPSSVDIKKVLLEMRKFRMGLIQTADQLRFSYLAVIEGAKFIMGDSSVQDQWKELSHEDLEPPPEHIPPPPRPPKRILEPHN
Protocol: as §4, with “The reaction was allowed to proceed for 10 min and then quenched by the addition of 40 µl of a 160 µM solution of bpV(Phen) (Sigma-Aldrich, cat# SML0889).” left out

T1 sequence (Q9UNH5 1-413): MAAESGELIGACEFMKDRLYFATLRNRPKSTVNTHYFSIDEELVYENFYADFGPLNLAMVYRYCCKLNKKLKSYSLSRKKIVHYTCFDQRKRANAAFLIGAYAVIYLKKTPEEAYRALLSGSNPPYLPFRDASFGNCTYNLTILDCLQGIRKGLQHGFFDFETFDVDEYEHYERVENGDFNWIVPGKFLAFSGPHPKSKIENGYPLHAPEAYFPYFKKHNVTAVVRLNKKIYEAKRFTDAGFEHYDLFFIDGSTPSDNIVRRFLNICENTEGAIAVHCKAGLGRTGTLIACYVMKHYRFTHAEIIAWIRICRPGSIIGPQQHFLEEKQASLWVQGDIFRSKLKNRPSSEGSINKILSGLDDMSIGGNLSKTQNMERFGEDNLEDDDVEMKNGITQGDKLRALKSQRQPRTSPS

Question: What does the source list for `CC(C)(O)CCOc1ccc2cc(O)c(N3CC(=O)NS3(=O)=O)c(F)c2c1` [Compound 182, 5-(1-Fluoro-3-hydroxy-7-(3-hydroxy-3-methylbutoxy)naphthalen-2-yl)−1,2,5-thiadiazolidin-3-one 1,1-dioxide]?
Answer: IC50 (CDC14A): 6.3 ± 0.8 µM; IC50 (CDC14B): 5.2 ± 1.7 µM; IC50 (LYP): > 20 µM; IC50 (Laforin): > 20 µM; IC50 (PTPε): 0.8 ± 0.1 µM; IC50 (STEP): > 20 µM; mode of inhibition (PTP1B): classic competitive inhibitor
